# From patent US10022374B2, “Certain protein kinase inhibitors” (Shanghai Fochon Pharmaceutical Co., Ltd., priority 2013, dated 2018)
# Like-named read-outs stand apart in the source and are kept apart here.
# Experiments:
# HT-29 cells = experiment: Inhibition of cell proliferation (MTS), HT-29 cells; type: cell-based; conditions: Homo sapiens, HT-29, 72 h
# Method: (§1) MTS testing kit was purchased from Promega. The DMEM, RPMI-1640 and Fetal bovine serum were purchased from Gibco. Dimethyl sulfoxide (DMSO) was purchased from Sigma.
# (§2) To investigate whether a compound is able to inhibit the activity of MEK in cells, a mechanism-based assay using A-375 and HT-29 cell was developed. In this assay, inhibition of MEK was detected by the inhibition of A-375 and HT-29 cells proliferation. A-375 and HT-29 cells were cultured in culture flasks to 40-80% confluence respectively in DMEM and RPMI-1640 plus 10% fetal bovine serum. Cells were collected and plated onto 96-well plates at desired cell density (A-375: 3000 cells/well; HT-29: 5000 cells/well). Plates were incubated overnight at 37° C., with 5% CO2 to adhere. Compounds were added to the plates. The final compound concentrations were […], 12.35, 4.12, 1.37, 0.46 and 0.15 nM, respectively. Place plates at 37° C., with 5% CO2 for 72 h. 10 μl MTS were added to each well and incubate the plates for exactly 2 hours. Absorbance was measured at 490 nm. […] was calculated using GraphPad Prism 5.0.
# A-375 cells = experiment: Inhibition of cell proliferation (MTS), A-375 cells; type: cell-based; conditions: Homo sapiens, A-375, 72 h
# Method: as §1, §2
# [1] = HT-29 cells, 5000 cells/well, 72 h, MTS, absorbance 490 nm, read-out: HT29 IC50
# [2] = A-375 cells, 3000 cells/well, 72 h, MTS, absorbance 490 nm, read-out: A375 IC50
SMILES,IC50 (HT-29 cells; [1]) [nM],IC50 (A-375 cells; [2]) [nM],IC50 (HT-29 cells; read-out: HT29 IC50 (nM)) [nM],IC50 (A-375 cells; read-out: A375 IC50 (nM)) [nM]
"CCC(=O)Nc1cccc(-c2nn(CC(O)CO)c(=O)c3c(Nc4ccc(I)cc4F)c(F)c(=O)n(C)c23)c1 (stereo not shown) [Example 41, N-(3-(6-(2,3-dihydroxypropyl)-3-fluoro-4-(2-fluoro-4-iodophenylamino)-1-methyl-2,5-dioxo-1,2,5,6-tetrahydropyrido[2,3-d]pyridazin-8-yl)phenyl)propionamide]",315,399,–,–
"Cn1c(=O)c(F)c(Nc2ccc(I)cc2F)c2c(=O)n(CC(O)CO)nc(-c3cccc(NC(=O)C4CC4)c3)c21 (stereo not shown) [Example 42, N-(3-(6-(2,3-dihydroxypropyl)-3-fluoro-4-(2-fluoro-4-iodophenylamino)-1-methyl-2,5-dioxo-1,2,5,6-tetrahydropyrido[2,3-d]pyridazin-8-yl)phenyl)cyclopropanecarboxamide]",112,180,–,–
"Cn1c(=O)c(F)c(Nc2ccc(I)cc2F)c2c(=O)n(CC(O)CO)nc(-c3cccc(NS(C)(=O)=O)c3)c21 (stereo not shown) [Example 43, N-(3-(6-(2,3-dihydroxypropyl)-3-fluoro-4-(2-fluoro-4-iodophenylamino)-1-methyl-2,5-dioxo-1,2,5,6-tetrahydropyrido[2,3-d]pyridazin-8-yl)phenyl)methanesulfonamide]",4.6,3.6,–,–
"CCS(=O)(=O)Nc1cccc(-c2nn(CC(O)CO)c(=O)c3c(Nc4ccc(I)cc4F)c(F)c(=O)n(C)c23)c1 (stereo not shown) [Example 44, N-(3-(6-(2,3-dihydroxypropyl)-3-fluoro-4-(2-fluoro-4-iodophenylamino)-1-methyl-2,5-dioxo-1,2,5,6-tetrahydropyrido[2,3-d]pyridazin-8-yl)phenyl)ethanesulfonamide]",57.7,71.3,–,–
"CC(C)S(=O)(=O)Nc1cccc(-c2nn(CC(O)CO)c(=O)c3c(Nc4ccc(I)cc4F)c(F)c(=O)n(C)c23)c1 (stereo not shown) [Example 45, N-(3-(6-(2,3-dihydroxypropyl)-3-fluoro-4-(2-fluoro-4-iodophenylamino)-1-methyl-2,5-dioxo-1,2,5,6-tetrahydropyrido[2,3-d]pyridazin-8-yl)phenyl)propane-2-sulfonamide]",23.5,9.8,–,–
"Cn1c(=O)c(F)c(Nc2ccc(I)cc2F)c2c(=O)n(CC(O)CO)nc(-c3cccc(NS(=O)(=O)C4CC4)c3)c21 (stereo not shown) [Example 46, N-(3-(6-(2,3-dihydroxypropyl)-3-fluoro-4-(2-fluoro-4-iodophenylamino)-1-methyl-2,5-dioxo-1,2,5,6-tetrahydropyrido[2,3-d]pyridazin-8-yl)phenyl)cyclopropanesulfonamide]",24.2,68.9,–,–
"CN(c1cccc(-c2nn(C3CC3)c(=O)c3c(Nc4ccc(I)cc4F)c(F)c(=O)n(C)c23)c1)S(C)(=O)=O [Example 47, N-(3-(6-cyclopropyl-3-fluoro-4-((2-fluoro-4-iodophenyl)amino)-1-methyl-2,5-dioxo-1,2,5,6-tetrahydropyrido[2,3-d]pyridazin-8-yl)phenyl)-N-methylmethanesulfonamide]",16.6,4.9,–,–
"CC(C)S(=O)(=O)N(C)c1cccc(-c2nn(C)c(=O)c3c(Nc4ccc(I)cc4F)c(F)c(=O)n(C)c23)c1 [Example 51, N-(3-(3-fluoro-4-((2-fluoro-4-iodophenyl)amino)-1,6-dimethyl-2,5-dioxo-1,2,5,6-tetrahydropyrido[2,3-d]pyridazin-8-yl)phenyl)-N-methylpropane-2-sulfonamide]",–,–,2,2.2
"Cn1nc(-c2cccc(N3CCCC3=O)c2)c2c(c(Nc3ccc(I)cc3F)c(F)c(=O)n2C)c1=O [Example 54, 3-fluoro-4-((2-fluoro-4-iodophenyl)amino)-1,6-dimethyl-8-(3-(2-oxopyrrolidin-1-yl)phenyl)pyrido[2,3-d]pyridazine-2,5(1H,6H)-dione]",–,–,7.9,4.7

# Now from value to compound, other results behind:
IC50 (HT-29 cells; [1]) [nM],IC50 (A-375 cells; [2]) [nM],SMILES,IC50 (HT-29 cells; read-out: HT29 IC50 (nM)) [nM],IC50 (A-375 cells; read-out: A375 IC50 (nM)) [nM]
13.2,3.4,"CC(C)S(=O)(=O)N(C)c1cccc(-c2nn(C3CC3)c(=O)c3c(Nc4ccc(I)cc4F)c(F)c(=O)n(C)c23)c1 [Example 48, N-(3-(6-cyclopropyl-3-fluoro-4-((2-fluoro-4-iodophenyl)amino)-1-methyl-2,5-dioxo-1,2,5,6-tetrahydropyrido[2,3-d]pyridazin-8-yl)phenyl)-N-methylpropane-2-sulfonamide]",–,–
11.7,2.5,"CN(c1cccc(-c2nn(C3CC3)c(=O)c3c(Nc4ccc(I)cc4F)c(F)c(=O)n(C)c23)c1)S(=O)(=O)C1CC1 [Example 49, N-(3-(6-cyclopropyl-3-fluoro-4-((2-fluoro-4-iodophenyl)amino)-1-methyl-2,5-dioxo-1,2,5,6-tetrahydropyrido[2,3-d]pyridazin-8-yl)phenyl)-N-methylcyclopropanesulfonamide]",–,–
5.3,1.5,"CN(c1cccc(-c2nn(C)c(=O)c3c(Nc4ccc(I)cc4F)c(F)c(=O)n(C)c23)c1)S(C)(=O)=O [Example 50, N-(3-(3-fluoro-4-((2-fluoro-4-iodophenyl)amino)-1,6-dimethyl-2,5-dioxo-1,2,5,6-tetrahydropyrido[2,3-d]pyridazin-8-yl)phenyl)-N-methylmethanesulfonamide]",–,–
7.8,5.7,"CN(c1cccc(-c2nn(C)c(=O)c3c(Nc4ccc(I)cc4F)c(F)c(=O)n(C)c23)c1)S(=O)(=O)C1CC1 [Example 52, N-(3-(3-fluoro-4-((2-fluoro-4-iodophenyl)amino)-1,6-dimethyl-2,5-dioxo-1,2,5,6-tetrahydropyrido[2,3-d]pyridazin-8-yl)phenyl)-N-methylcyclopropanesulfonamide]",–,–
19.1,7.8,"Cn1c(=O)c(F)c(Nc2ccc(I)cc2F)c2c(=O)n(C3CC3)nc(-c3cccc(N4CCCC4=O)c3)c21 [Example 53, 6-cyclopropyl-3-fluoro-4-((2-fluoro-4-iodophenyl)amino)-1-methyl-8-(3-(2-oxopyrrolidin-1-yl)phenyl)pyrido[2,3-d]pyridazine-2,5(1H,6H)-dione]",–,–
18.7,8.8,"Cn1c(=O)c(F)c(Nc2ccc(I)cc2F)c2c(=O)n(C3CC3)nc(-c3cccc(N4CCCS4(=O)=O)c3)c21 [Example 55, 6-cyclopropyl-8-(3-(1,1-dioxidoisothiazolidin-2-yl)phenyl)-3-fluoro-4-((2-fluoro-4-iodophenyl)amino)-1-methylpyrido[2,3-d]pyridazine-2,5(1H,6H)-dione]",–,–
14.1,9.3,"Cn1nc(-c2cccc(N3CCCS3(=O)=O)c2)c2c(c(Nc3ccc(I)cc3F)c(F)c(=O)n2C)c1=O [Example 56, 8-(3-(1,1-dioxidoisothiazolidin-2-yl)phenyl)-3-fluoro-4-((2-fluoro-4-iodophenyl)amino)-1,6-dimethylpyrido[2,3-d]pyridazine-2,5(1H,6H)-dione]",–,–
> 1000,> 1000,"Cc1ccc(Nc2c(C)c(=O)n(C)c3c(C)n[nH]c(=O)c23)c(F)c1 [Reference Compound, 4-((2-fluoro-4-methylphenyl)amino)-1,3,8-trimethylpyrido[2,3-d]pyridazine-2,5(1H,6H)-dione, reference compound]",–,–
